{"source": "patent US7829568B2", "about": "“Substituted 5,6,7,8-tetrahydroimidazo[1,2-a]pyridin-2-ylamine compounds and their use for producing drugs” (Gruenenthal GmbH, priority 2005, dated 2010)"}
{"system": "batrachotoxin (BTX) binding site of the sodium channel", "assay": "Affinity to the batrachotoxin (BTX) binding site of the sodium channel", "set-up": "species or system rat", "conditions": "[3H]-batrachotoxinin A20 α-benzoate 10 nM; synaptosomes from rat cerebral cortex; test concentration not given", "units": {"BTX inhibition (rat) (% inhibition)": "%"}}
{"molecule": "CN(C(=O)c1cccc(Cl)c1)c1nc2n(c1C(=O)N1CCN(Cc3ccc4c(c3)OCO4)CC1)CCCC2", "note": "[Example 45, N-[3-(4-benzo[1,3]dioxol-5-ylmethyl-piperazine-1-carbonyl)-5,6,7,8-tetrahydro-imidazo[1,2-a]pyridin-2-yl]-3-chloro-N-methyl-benzamide]", "BTX inhibition (rat) (% inhibition)": 41}
{"molecule": "CN(C(=O)c1cccc(Cl)c1)c1nc2n(c1C(=O)N1CCN(CCc3ccccc3)CC1)CCCC2", "note": "[Example 106, 3-chloro-N-methyl-N-[3-(4-phenethyl-piperazine-1-carbonyl)-5,6,7,8-tetrahydro-imidazo[1,2-a]pyridin-2-yl]-benzamide]", "BTX inhibition (rat) (% inhibition)": 40}
{"molecule": "COc1cc(OC)c(CN2CCN(C(=O)c3c(N(C)C(=O)c4cccc(Cl)c4)nc4n3CCCC4)CC2)c(OC)c1", "note": "[Example 146, 3-chloro-N-methyl-N-{3-[4-(2,4,6-trimethoxy-benzyl)-piperazine-1-carbonyl]-5,6,7,8-tetrahydro-imidazo[1,2-a]pyridin-2-yl}-benzamide]", "BTX inhibition (rat) (% inhibition)": 70}
{"molecule": "CCc1ccc(NC(=O)c2c(N(C)C(=O)c3cccc(Cl)c3)nc3n2CCCC3)cc1", "note": "[Example 31, 2-[(3-chloro-benzoyl)-methyl-amino]-5,6,7,8-tetrahydro-imidazo[1,2-a]pyridine-3-carboxylic acid (4-ethyl-phenyl)-amide]", "BTX inhibition (rat) (% inhibition)": 70}
{"molecule": "CCCCN(C(=O)c1cccc(Cl)c1)c1nc2n(c1C(=O)NCCc1ccc(Oc3ccccc3)cc1)CCCC2", "note": "[Example 134, 2-[butyl-(3-chloro-benzoyl)-amino]-5,6,7,8-tetrahydro-imidazo[1,2-a]pyridine-3-carboxylic acid [2-(4-phenoxy-phenyl)-ethyl]-amide]", "BTX inhibition (rat) (% inhibition)": 93}
{"molecule": "CN(C(=O)c1cccc2ccccc12)c1nc2n(c1C(=O)Nc1ccc(Oc3ccccc3)cc1)CCCC2", "note": "[Example 185, 2-[methyl-(naphthalene-1-carbonyl)-amino]-5,6,7,8-tetrahydro-imidazo[1,2-a]pyridine-3-carboxylic acid (4-phenoxy-phenyl)-amide]", "BTX inhibition (rat) (% inhibition)": 74}
{"molecule": "CCCCN(C(=O)c1cccc(Cl)c1)c1nc2n(c1C(=O)NCc1cccc(F)c1)CCCC2", "note": "[Example 158, 2-[butyl-(3-chloro-benzoyl)-amino]-5,6,7,8-tetrahydro-imidazo[1,2-a]pyridine-3-carboxylic acid 3-fluoro-benzylamide]", "BTX inhibition (rat) (% inhibition)": 33}
{"molecule": "CCCCN(C(=O)c1cccc(Cl)c1)c1nc2n(c1C(=O)Nc1ccc(NC(=O)OC(C)(C)C)cc1)CCCC2", "note": "[Example 189, [4-({2-[butyl-(3-chloro-benzoyl)-amino]-5,6,7,8-tetrahydro-imidazo[1,2-a]pyridine-3-carbonyl}-amino)-phenyl]-carbamic acid tert-butyl ester]", "BTX inhibition (rat) (% inhibition)": 93}
{"molecule": "CN(C(=O)c1cccc(Cl)c1)c1nc2n(c1C(=O)NC1CCCCC1OCc1ccccc1)CCCC2", "note": "(centres unmarked) [Example 67, 2-[(3-chloro-benzoyl)-methyl-amino]-5,6,7,8-tetrahydro-imidazo[1,2-a]pyridine-3-carboxylic acid (2-benzyloxy-cyclohexyl)-amide]", "BTX inhibition (rat) (% inhibition)": 51}
{"molecule": "CCCCN(C(=O)c1ccc(F)c(F)c1)c1nc2n(c1C(=O)NCCC(c1ccccc1)c1ccccc1)CCCC2", "note": "[Example 180, 2-[butyl-(3,4-difluoro-benzoyl)-amino]-5,6,7,8-tetrahydro-imidazo[1,2-a]pyridine-3-carboxylic acid (3,3-diphenyl-propyl)-amide]", "BTX inhibition (rat) (% inhibition)": 62}
{"molecule": "CCCCN(C(=O)c1ccc(F)c(F)c1)c1nc2n(c1C(=O)N1CCN(c3cc(C)ccc3C)CC1)CCCC2", "note": "[Example 138, N-butyl-N-{3-[4-(2,5-dimethyl-phenyl)-piperazine-1-carbonyl]-5,6,7,8-tetrahydro-imidazo[1,2-a]pyridin-2-yl}-3,4-difluoro-benzamide]", "BTX inhibition (rat) (% inhibition)": 80}
